The text below walks through data of PubChem BioAssay (NCI).

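Following 48 hours of exposure in 96-well plates, responses at five concentrations were used to interpolate endpoints linearly. TGI: concentration producing complete growth inhibition.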 A value given as a limit tells only on which side of the number the result lay.

Some test systems named below: DLD-1 colon; SNB-78 CNS; KM20L2 colon; XF 498 CNS; LXFL 529 NSCLC; HOP-18 NSCLC; RXF-631 renal.
Experiment in all cases: DTP human tumour cell line panel, 48 h

With `C=C1C[C@]23C[C@@]1(O)CC[C@H]2[C@@]12C=C[C@H](O)[C@@](C)(C(=O)O1)[C@H]2[C@@H]3C(=O)O`, the TGI with DLD-1 colon, in the test with SNB-78 CNS, in the test with KM20L2 colon and with XF 498 CNS was over 100 µM in each case.

`COS(=O)c1cc(Cl)cc(Cl)c1O` (stereo not given): the TGI in the test on DLD-1 colon, in the test with LXFL 529 NSCLC and with XF 498 CNS was over 100 µM in each case.

For the molecule `CCN(CC)CCCNc1ccc2nnn3c4ccc(O)cc4c(=O)c1c23`, the TGI (commonly the concentration at which net growth stops) in the test with DLD-1 colon amounted to 19 µM; in the test with LXFL 529 NSCLC, 21.2 µM; with HOP-18 NSCLC, 29.8 µM; in the test with SNB-78 CNS it was 32.5 µM; in the test with KM20L2 colon it was 18.7 µM; in the test with XF 498 CNS, 28.9 µM. The molecule further yielded a TGI in the test with RXF-631 renal of 17.4 µM.

On to `CCOC(=O)C(C(=O)Cc1ccccc1)c1ccccc1` (stereo not given), for which the TGI in the test on DLD-1 colon, in the test on LXFL 529 NSCLC, with SNB-78 CNS, in the test with KM20L2 colon and with XF 498 CNS was over 100 µM throughout.

Regarding `O=[As](O)(O)c1cc(N=Nc2ccc(-c3ccc(N=Nc4cc([As](=O)(O)O)c(O)cc4O)cc3)cc2)c(O)cc1O`, the concentration for total growth inhibition (TGI) in the test with DLD-1 colon is over 59.2 µM; in the test with LXFL 529 NSCLC, over 100 µM; with HOP-18 NSCLC it was over 100 µM; with SNB-78 CNS it was over 100 µM; in the test with KM20L2 colon, over 100 µM; in the test on RXF-631 renal, over 100 µM.
